Values of other authors in patent US10035944B2, “Using synthetic acid compositions as alternatives to conventional acids in the oil and gas industry” (priority 2014, dated 2018).

Details: death in 2-3 minutes

Cl [Hydrogen chloride gas, Hydrogen chloride]
level at which death can occur: 1300-2000 ppm
